According to US12178867B2, “MHC class i associated peptides for prevention and treatment of multiple flavi virus” (priority 2018, dated 2024):

Tests used:
[1] = test system: peptide loaded T2 cells; test: CTL assay: peptide-stimulated PBMCs of naive HLA-A2+ donor co-cultured with peptide loaded T2 cells, flow cytometry (FIG. 3A); type: cell-based, human
Protocol: FIGS. 3A and 3B: (FIG. 3A) Utilizing a healthy (naive) human HLA-A2+ donor, peripheral blood mononuclear cells (PBMCs) were stimulated with peptide epitopes in a cytokine cocktail to induce antigen specific CTL response. These stimulated PBMCs were then assayed by co-culturing peptide loaded targets for antigen specific response. TAP-deficient cells (T2) were used for peptide loading, and blank T2 cells used as control. Expanded PBMCs were assayed for both CD107a degranulation and interferon gamma (IFN-g) markers by flow cytometry. All 6 peptide epitopes induced CD8+ CD107a and IFNg expression to peptide loaded T2 cells in a peptide specific manner. […] (FIG. 3B) Utilizing a healthy (naive) human HLA-A2+ donor, peripheral blood mononuclear cells (PBMCs) were stimulated with peptide epitopes in a cytokine cocktail to induce antigen specific CTL response. These stimulated PBMCs were then assayed by co-culturing with Hep2G infected cells (DV2/Zika). Uninfected HepG2 cells were used as control. Expanded PBMCs were assayed for both CD107a degranulation and interferon gamma (IFN-g) markers by flow cytometry.
In one experiment, utilizing a healthy (naive) human HLA-A2+ donor, peripheral blood mononuclear cells (PBMCs) were stimulated with peptide epitopes in a cytokine cocktail to induce antigen specific CTL response. […]

[2] = test system: peptide loaded HepG2 cells; test: CTL assay: peptide-stimulated PBMCs of naive HLA-A24+ donor co-cultured with peptide loaded HepG2 cells, flow cytometry (FIG. 4); type: cell-based, human; conditions: blank HepG2 cells as control
Protocol: FIG. 4: Utilizing a healthy (naive) human HLA-A24+ donor, peripheral blood mononuclear cells (PBMCs) were stimulated with peptide epitopes in a cytokine cocktail to induce antigen specific CTL response. These stimulated PBMCs were then assayed by co-culturing peptide loaded targets for antigen specific response. Hep2G cells were used for peptide loading, and blank Hep2G cells used as control. Also used was HepG2 cells infected with Dengue (DV2) and Zika. Expanded PBMCs were assayed for both CD8/IFNg double expression by flow cytometry. All 4 peptide epitopes induced CD8+ IFNg expression to peptide loaded HepG2 cells in a peptide specific manner. […] FIG. 5: Transgenic A2 mice were immunized with 200 ng of NP-Dengue peptides. The spleen cells were isolated and then exposed to either Zika or Dengue infected cells. […] Acid stripping of the peptides makes the cells non-response.
In a further experiment, utilizing a healthy (naive) human HLA-A24+ donor, peripheral blood mononuclear cells (PBMCs) were stimulated with peptide epitopes in a cytokine cocktail to induce antigen specific CTL response. These stimulated PBMCs were then assayed by co-culturing peptide loaded targets for antigen specific response (FIG. 4). Hep2G cells were used for peptide loading, and blank Hep2G cells used as control. Also used was HepG2 cells infected with Dengue (DV2) and Zika. […]

In the case of “PMAAVGLLIVS (listed as Dengue virus) [SEQ ID NO: 2]”, the “IFNg+ effect” value [1] is reported as “particular pronounced IFNg+ effect” and the “CD8+ IFNg expression to peptide loaded HepG2 cells” value [2] is reported as “particular pronounced IFNg+ effect”.
